{"source": "patent EP3360539A1", "about": "“PHARMACEUTICAL FORMULATION” (SapioTec GmbH, priority 2017, dated 2018)", "key": {"[1]": {"conditions": "pH 9"}, "[2]": {"conditions": "in HPBCD (10%); Fuchs et al. 2014; cited from earlier work"}}, "data": [{"molecule": "O=C1CN(/N=C/c2ccc(-c3ccc([N+](=O)[O-])cc3)o2)C(O)=N1", "note": "[Dantrolen-Natrium]", "values": [{"measurement": "solubility thermodynamic at 24 h", "setting": "physchem; 25% hpbcd in deionized water, Gelöstes Dantrolen-Natrium", "result": 15.6, "unit": "mg/mL"}, {"measurement": "solubility thermodynamic at 24 h", "setting": "physchem; 25% hpbcd in deionized water, pH 9, Gelöstes Dantrolen-Natrium", "result": 16, "unit": "mg/mL"}, {"measurement": "solubility thermodynamic at 24 h", "setting": "physchem; 25% hpbcd, 1% tris, water, pH 9, Gelöstes Dantrolen-Natrium", "result": 14.4, "unit": "mg/mL"}, {"measurement": "solubility thermodynamic at 24 h", "setting": "physchem; water, 25% hpbcd, 2% glycerol, pH 9, organic solvent or mixture, Gelöstes Dantrolen-Natrium", "result": 9.5, "unit": "mg/mL"}, {"measurement": "solubility thermodynamic at 24 h", "setting": "physchem; water, 25% hpbcd, arginine, pH 9, Gelöstes Dantrolen-Natrium", "result": 8.5, "unit": "mg/mL"}, {"measurement": "solubility thermodynamic at 24 h", "setting": "physchem; water, 25% hpbcd, edta, pH 9, Gelöstes Dantrolen-Natrium", "result": 3.6, "unit": "mg/mL"}, {"measurement": "solubility thermodynamic at 24 h", "setting": "physchem; water, 25% hpbcd, lysine, pH 9, Gelöstes Dantrolen-Natrium", "result": 15.7, "unit": "mg/mL"}, {"measurement": "Löslichkeit", "setting": "[1]", "result": "bemerkenswerte Steigerung der Löslichkeit"}, {"measurement": "Konzentration des gelösten Dantrolens in Lösung", "setting": "[2]", "result": "0,137 mg/ml"}]}]}
